Source: patent US7053050B2, “Preventives/remedies for proliferative organ diseases chronic arthritic diseases, hypertrophic scar or keloid” (Yoshiko Yasuda, priority 2001, dated 2006)

Test system: malignant melanoma cell strains (P39) tumor
Assay: Heterotransplantation of malignant melanoma cells in nude mice; PCNA and CD31 staining of the excised tumor
Format: in vivo, nude mice (Balb/c Jcl-nu)
Protocol: EMP9 was synthesized by a known method and dissolved in saline. The solution was colored with addition of Evans blue at the final concentration of 0.25%.
Five-week old nude mice (Balb/c Jcl-nu, Japan Clea Inc.) were purchased, maintained in a germfree chamber for a week for acclimatization and then used. 5×10^6 cells of malignant melanoma cell strains (P39, Utsumi and Elkind, 1993) were suspended in a culture solution (0.1 ml) and the suspension was injected subcutaneously interscapularly into the mice. After a few weeks, formation of tumor was observed on the outer skin surface. The major axis×minor axis×height of the tumor was measured twice a week. The tumor was observed until its size became 6×7×7 mm, thereafter administration was started. After the administration, the size of the tumor was measured in a similar manner.
Four doses of 0.1 ml of a 0.5 mg/ml EMP9 solution were administered intraperitoneally at intervals of 1 hr. After 24 hr and 48 hr, 0.1 ml of the solution was administered similarly 4 times, respectively. On the 7th day from the first administration, the tumor was excised.
The excised tumor was fixed in Zamboni fixing liquid or frozen in liquid nitrogen. The tumor fixed in Zamboni fixing liquid was divided into several tissue masses. The plural samples collected from the respective masses were embedded to prepare tissue sections thereof. The proliferating cells were stained using PCNA antibody and the vascular endothelial cells were stained using CD31 antibody, respectively. Hematoxylin was used for nuclear staining. Each of the section specimens was observed under a microscope at 200-fold magnification. The cell number in 20 compartments wherein one compartment has an area of 17.6×10^−3 mm^2 was counted (the cell number was not less than 4,500). The cell proliferation ratio was calculated from the following equation and represented in [Table 1]. Furthermore, the number of blood vessel in 100 compartments was counted, and the average number per a compartment (13.1×10^−2 mm^2) was calculated and represented in [Table 1]. […]

Substance: erythropoietin mimetic peptide 9 (GGTYSCHFAPLTWVCKPQGG) [EMP9, erythropoietin receptor antagonist]
- Proliferation ratio (%) (P39 melanoma tumor in nude mice, 0.1 ml of 0.5 mg/ml EMP9 intraperitoneally 4 times at 1 hr intervals, repeated after 24 hr and 48 hr, tumor excised on 7th day, PCNA staining, proliferating cells/living cells x100): 3.03%
- Inhibitory effects on tumor proliferation and neovascular proliferation (conclusion in words) (conclusion from Table 1, significant difference versus saline group (p<0.05)): superior inhibitory effects on both tumor proliferation and neovascular proliferation
- Number of blood vessel (average ± standard error) (same regimen, CD31 staining, average number per compartment (13.1×10^−2 mm^2), 100 compartments counted): 0.64 ± 0.10
